Experimental data as given in ChEMBL document CHEMBL1137123, “Himbacine analogs as muscarinic receptor antagonists--effects of tether and heterocyclic variations” (Bioorg Med Chem Lett, 2004).

Experiments:
[1] = target: T1, Muscarinic acetylcholine receptor M1 (Homo sapiens, UniProt P11229); assay: In vitro inhibitory activity against cloned human M1 muscarinic receptor
T1 sequence (P11229 whole entry): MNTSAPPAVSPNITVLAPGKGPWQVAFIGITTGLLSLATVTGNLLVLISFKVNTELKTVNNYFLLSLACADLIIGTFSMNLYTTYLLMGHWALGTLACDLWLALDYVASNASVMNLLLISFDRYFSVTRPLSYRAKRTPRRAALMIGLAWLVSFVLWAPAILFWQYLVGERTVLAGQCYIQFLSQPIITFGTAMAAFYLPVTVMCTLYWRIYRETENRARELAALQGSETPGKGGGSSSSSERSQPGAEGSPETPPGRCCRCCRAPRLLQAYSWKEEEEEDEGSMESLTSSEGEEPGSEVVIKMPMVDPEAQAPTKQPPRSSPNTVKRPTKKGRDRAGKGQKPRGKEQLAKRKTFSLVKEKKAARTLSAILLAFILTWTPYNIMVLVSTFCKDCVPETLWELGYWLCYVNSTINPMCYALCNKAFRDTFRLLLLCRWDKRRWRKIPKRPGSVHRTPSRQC

[2] = target: T2, Muscarinic acetylcholine receptor M2 (Homo sapiens, UniProt P08172); assay: In vitro inhibitory activity against cloned human M2 muscarinic receptor
T2 sequence (P08172 whole entry): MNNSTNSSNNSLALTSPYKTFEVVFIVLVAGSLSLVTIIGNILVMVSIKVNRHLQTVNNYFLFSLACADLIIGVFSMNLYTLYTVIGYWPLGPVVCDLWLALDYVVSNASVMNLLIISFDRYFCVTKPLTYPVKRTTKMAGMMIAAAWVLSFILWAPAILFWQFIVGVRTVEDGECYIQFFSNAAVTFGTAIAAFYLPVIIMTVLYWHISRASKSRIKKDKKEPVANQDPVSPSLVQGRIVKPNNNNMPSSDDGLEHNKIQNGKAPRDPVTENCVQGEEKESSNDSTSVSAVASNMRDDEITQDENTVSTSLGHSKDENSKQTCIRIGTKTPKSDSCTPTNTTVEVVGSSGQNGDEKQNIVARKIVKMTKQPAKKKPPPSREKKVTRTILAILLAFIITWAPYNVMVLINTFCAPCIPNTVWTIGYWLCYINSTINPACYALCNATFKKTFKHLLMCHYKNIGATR

| Compound | Ki [1] [nM] | Ki [2] [nM] |
| --- | --- | --- |
| C[C@@H]1OC(=O)[C@H]2C[C@H]3CCCC[C@@H]3/C(=C/CC3CCC(C)(C)N3C)[C@@H]12 (some centres not stated) | 418 | 43 |
| C[C@@H]1OC(=O)[C@H]2C[C@H]3CCCC[C@@H]3[C@@H](/C=C/[C@@H]3CCC[C@H](C)N3C)[C@@H]12 | > 1400 | > 1400 |
| C[C@@H]1OC(=O)[C@H]2C[C@H]3CCCC[C@@H]3[C@@H](CC[C@H]3CCC[C@H](C)N3C)[C@@H]12 | 32 | 4.3 |
| C[C@@H]1OC(=O)[C@H]2C=C3CCCC[C@@H]3[C@@H]([C@@H]3CC4CCC(C)(C)N4O3)[C@@H]12 (some centres not stated) | > 1400 | > 1400 |
| CCN1C(C/C=C2\[C@H]3[C@H](C)OC(=O)[C@H]3C=C3CCCC[C@@H]32)CCC1(C)C (some centres not stated) | 640 | > 1400 |
| C[C@@H]1OC(=O)[C@H]2C[C@H]3CCCC[C@@H]3[C@@H](/C=C/[C@H]3CCC[C@H](C)N3C)[C@@H]12 [HIMBACINE] | 48 | 4.5 |
| C[C@@H]1OC(=O)[C@H]2C[C@H]3CCCC[C@@H]3C(CCC3CCC(C)(C)N3C)[C@@H]12 (some centres not stated) | 122 | 12.2 |
| C[C@@H]1OC(=O)[C@H]2C=C3CCCC[C@@H]3/C(=C/CC3CCC(C)(C)[N+]3(C)C)[C@@H]12 (some centres not stated) | 446 | 571 |
| CCN1C(CCC2[C@H]3[C@H](C)OC(=O)[C@H]3C[C@H]3CCCC[C@H]23)CCC1(C)C (some centres not stated) | 811 | 449 |
| C[C@@H]1OC(=O)[C@H]2C=C3CCCC[C@@H]3[C@@H]([C@@H]3CC4CCC(C)(C)[N+]4(C)O3)[C@@H]12 (some centres not stated) | 790 | 180 |
| C[C@@H]1OC(=O)[C@H]2C[C@H]3CCCC[C@@H]3/C(=C/C[C@H]3CCC[C@H](C)N3C)[C@@H]12 | 65.9 | 13.3 |
| C[C@@H]1OC(=O)[C@H]2C[C@H]3CCCC[C@@H]3[C@@H](/C=C/[C@@H]3CCC[C@H](C)N3)[C@@H]12 | > 1400 | > 1400 |
| C[C@@H]1OC(=O)[C@H]2C[C@H]3CCCC[C@@H]3[C@@H](CC[C@H]3CCC[C@H](C)N3)[C@@H]12 | 68 | 16 |
| C[C@@H]1OC(=O)[C@H]2C=C3CCCC[C@@H]3/C(=C/CC3CCC(C)(C)N3C)[C@@H]12 (some centres not stated) | 177 | 68 |
| C[C@@H]1OC(=O)[C@H]2C[C@H]3CCCC[C@@H]3[C@@H]([C@@H](O)C[C@H]3CCC(C)(C)N3C)[C@@H]12 | > 1400 | > 1400 |
| C[C@@H]1OC(=O)[C@H]2C[C@H]3CCCC[C@@H]3[C@@H](/C(O)=C/[C@H]3CCC[C@H](C)N3C)[C@@H]12 | 1570 | 203 |
